Source: patent US12144814B2, “Compositions containing paraxanthine and beta-hydroxybutyrate or precursor for increasing neurological and physiological performance” (priority 2023, dated 2024)

How the values were obtained:
mice [1] = assay: Forced Swim Test on mice; assay type: in vivo
mice [2] = assay: Cook's Pole Climbing Test on mice; assay type: in vivo
healthy young adults [3] = assay: Go/No Go Attention and Inhibitory Control Test; assay type: in vivo; settings: 200 mg paraxanthine; 5 g BHB; 200 mg paraxanthine and 5 g BHB; baseline and 1-6 hours after supplementation; FIG. 4
Description: Attention and inhibitory control can be measured using a Go/No Go Test, which is used to measure a participant's capacity for sustained attention and response control. The Go/No Go Test is routinely used in the field, and will be familiar to those of skill in the art. In the Go/No Go Test, participants watch a 2×2 array of squares, and then there is a successive presentation of letters (e.g., either P or R) and the participant responds to a target letter by pressing the corresponding button on a keyboard. The single letter (P or R) is presented in one of the 4 squares for 500 milliseconds, with 1500 milliseconds between subsequent stimuli. For the P-Go condition, participants are asked to press the P key in response to the letter P, and abstain from responding to the letter R. For the R-reversal condition, the participants are asked to respond to the letter R, and abstain when seeing the letter P. Mean response time, as well as percentage of correct answers are recorded. When running each such tests, subjects are given either paraxanthine+BHB, paraxanthine alone, BHB alone, or a placebo. The dosage amounts are 200 mg paraxanthine and 5 g of BHB, 200 mg of paraxanthine alone, 5 g of BHB alone, or a placebo. The testing is conducted under double blind, placebo controlled conditions. […]

healthy young adults [4] = assay: Vigilance Task Test; assay type: in vivo; settings: 200 mg paraxanthine; 5 g BHB; 200 mg paraxanthine and 5 g BHB; baseline and 1-6 hours after supplementation; FIG. 6
Description: The Vigilance Task Test is another test routinely used in the field, and is used to evaluate a participants ability to sustain attention. The Vigilance Task Test is a sustained attention, reaction timed task test that measures the speed with which participants respond to a visual stimulus. The subjects respond to visual stimuli (e.g., a red dot) by pressing a key as soon as it appears on the computer screen. The light turns on at random, e.g., roughly every couple of seconds or so during the test. The speed of response is measured. Due to the random nature of the test, there is no learning effect. Mean response time is recorded. When running each such tests, subjects are given either paraxanthine+BHB, paraxanthine alone, BHB alone, or a placebo. The dosage amounts are 200 mg paraxanthine and 5 g of BHB, 200 mg of paraxanthine alone, 5 g of BHB alone, or a placebo. The testing is conducted under double blind, placebo controlled conditions. The subjects include 13 healthy young adults (10 male, 3 female), aged 24±5 years; height 170.0±11.8 cm; weight 72.9±19.3 kg.

[5] = Age-related cognitive decline study; assay type: in vivo; settings: BHB 5 g
[6] = Clinical Stroop Test study; assay type: in vivo; settings: paraxanthine 200 mg; BHB 5 g; paraxanthine 200 mg with BHB 5 g; 6-week period; FIGS. 15A-15C
Description: The Stroop effect refers to the delay in reaction time between congruent and incongruent stimuli. […] When paired with paraxanthine, the combination provides a synergistic improvement in mental acuity.

[7] = Clinical Resting Energy Expenditure study; assay type: in vivo; settings: paraxanthine 100 mg or 300 mg; BHB 5 g; paraxanthine 100 mg or 300 mg with BHB 5 g; 180-day period
Procedure: FIGS. 16A-16B show expected results of a clinical Resting Energy Expenditure study, where participants are supplemented with paraxanthine alone (100 mg or 300 mg), BHB alone (5 g), or paraxanthine (100 mg or 300 mg) in combination with BHB (5 g) over a 180-day period. […] Because of the presence of the BHB ketone body component, such increased metabolic rate is also more likely to occur within the context of ketogenic state, where fat is principally used as the caloric energy source for the increased resting metabolic rate.

[8] = cited from earlier work
[9] = cited from earlier work; for Total plasma clearance: in vivo; for half-life: elimination half-life, FIG. 3
dopaminergic neurons = settings: cited from earlier work
[10] = elevated doses; cited from earlier work
[11] = metabolite of caffeine, FIG. 2; cited from earlier work

In the case of C[N+](C)(C)CCOP(=O)([O-])OC[C@H](O)CO [Alpha-GPC], the “Duration of Immobility” value (mice [1]; Alpha-GPC 200 mg) is reported as 9.38 min, the “Duration of mobility/active swimming” value (mice [1]; Alpha-GPC 200 mg) is reported as 20.63 min and the “No. of Climbing” value (mice [2]; Alpha-GPC 200 mg) is reported as 5.5.
With CC(O)CC(=O)O (stereo not drawn) [BHB, beta-hydroxybutyrate] the “Go/No Go Test correct responses” value (healthy young adults [3]) was “decrease in correct answers over time”, the “Vigilance Task Test average response time” value (healthy young adults [4]) was “significantly slower reaction times” and the Acetylcholine [5] was 58 U/mL. For the same compound, the BDNF [5] was 775 pg/mL, the Catalase [5] was 28 U/mL and the Dopamine [5] was 475 ng/L. For the same compound, the “Escape Latency” value [5] was 50 s, the Glutathione [5] was 22 µg/mL and the “Duration of Immobility” value (mice [1]; BHB 5 g) was 9.5 min. For the same compound, the “Duration of mobility/active swimming” value (mice [1]; BHB 5 g) was 20 min, the “No. of Climbing” value (mice [2]; BHB 5 g) was 6 and the “Stroop test number of correct answers” value [6] was “little if any benefit”. The “Stroop test reaction speed” value [6] was “little if any benefit” and the resting energy expenditure [7] was “only a minor benefit”.
In the case of CCNC(=O)CC[C@H](N)C(=O)O [L-Theanine, L-theanine], the “Duration of Immobility” value (mice [1]; L-Theanine 50 mg) is reported as 8.74 min, the “Duration of mobility/active swimming” value (mice [1]; L-Theanine 50 mg) is reported as 21.26 min and the “No. of Climbing” value (mice [2]; L-Theanine 50 mg) is reported as 4.38.
For NCCS(=O)(=O)O [Taurine, taurine], the “Duration of Immobility” value (mice [1]; Taurine 500 mg) was 9.61 min, the “Duration of mobility/active swimming” value (mice [1]; Taurine 500 mg) was 20.39 min and the “No. of Climbing” value (mice [2]; Taurine 500 mg) was 6.5.
In the case of CC(O)CC(=O)O (stereo not drawn) [beta-hydroxybutyric acid], the pKa [8] is given as 4.70.
In the case of Cn1c(=O)c2c(ncn2C)n(C)c1=O [caffeine], the Total plasma clearance [9] is listed as 2.07 mL/min/kg and the “protection against neurodegeneration and the loss of synaptic function” value (dopaminergic neurons) is listed as “marginal protection”.
In the case of NC(=O)C[S+]([O-])C(c1ccccc1)c1ccccc1 (centres unmarked) [modafinil], the “hypothermia and reduced locomotor activity” value [10] is given as “induce hypothermia and reduced locomotor activity”.
For Cn1cnc2c1c(=O)[nH]c(=O)n2C [theobromine], the half-life [9] is given as 7.2 h and the Total plasma clearance [9] is given as 1.2 mL/min/kg.
In the case of Cn1c(=O)c2[nH]cnc2n(C)c1=O [theophylline], the half-life [9] is listed as 6.2 h, the Total plasma clearance [9] is listed as 0.93 mL/min/kg and the “share of the methylxanthine metabolic by-products” value [11] is listed as 4%.
